Data: patent publication US20230147257A1 (DONG-A ST CO., LTD., priority 2020, published 2023)
Structures can show the parent of a compound that is named as a salt.

Molecular target: T1, AhR (Homo sapiens, UniProt P35869)
T1 construct: host or cells: HepG2
T1 sequence (P35869 11-848): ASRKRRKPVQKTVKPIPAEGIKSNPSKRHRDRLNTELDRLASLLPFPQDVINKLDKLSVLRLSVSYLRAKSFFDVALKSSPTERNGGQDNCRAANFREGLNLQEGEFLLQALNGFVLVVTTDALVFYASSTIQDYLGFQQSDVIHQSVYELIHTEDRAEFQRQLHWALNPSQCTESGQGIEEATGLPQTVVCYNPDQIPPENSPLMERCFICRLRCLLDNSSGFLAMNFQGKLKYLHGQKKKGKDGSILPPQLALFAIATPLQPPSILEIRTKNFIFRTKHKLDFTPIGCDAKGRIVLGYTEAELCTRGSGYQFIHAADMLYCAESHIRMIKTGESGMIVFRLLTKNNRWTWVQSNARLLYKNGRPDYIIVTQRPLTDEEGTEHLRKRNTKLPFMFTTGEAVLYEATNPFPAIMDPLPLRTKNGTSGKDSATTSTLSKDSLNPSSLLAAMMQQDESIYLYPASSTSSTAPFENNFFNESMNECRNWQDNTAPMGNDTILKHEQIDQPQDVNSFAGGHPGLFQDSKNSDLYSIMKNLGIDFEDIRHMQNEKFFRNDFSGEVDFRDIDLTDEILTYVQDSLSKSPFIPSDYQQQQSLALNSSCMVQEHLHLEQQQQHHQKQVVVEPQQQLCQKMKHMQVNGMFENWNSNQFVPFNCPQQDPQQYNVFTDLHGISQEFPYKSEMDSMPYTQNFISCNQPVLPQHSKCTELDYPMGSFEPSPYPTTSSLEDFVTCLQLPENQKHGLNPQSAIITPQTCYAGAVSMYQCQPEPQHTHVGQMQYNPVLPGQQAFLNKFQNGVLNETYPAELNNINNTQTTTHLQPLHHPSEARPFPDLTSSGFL
Experiment: In vitro assay 1: XRE-luciferase reporter assay, antagonism in human cell line (HepG2)
Assay type: cell-based
Settings: HepG2 XRE-luciferase, cells treated with kynurenine 50 μM (*), 6 hours; read-out: Assay 1: AhR-Luc Human Antagonism (IC50)
Text: In Vitro XRE-Luciferase Reporter Assay (In Vitro Assay 1, 2, 3)
AhR activation leads the induction of target gene expression such as CYP1A1 and CYP1B1 by AhR binding to AhR-responsive DNA elements also known as xenobiotics responsive elements (XRE). The assay for measuring AhR activity herein is the luciferase assay using cell lines transfected with luciferase reporter plasmid containing XREs at the upstream of the reporter gene. Cells transfected with XRE-luciferase reporter (XRE-Luc) plasmid drive luciferase activity reflecting activation and inhibition of AhR in the cells. In addition to transfection with XRE-reporter vector, cells were co-transfected with Nano-luciferase reporter gene construct (Nano-Luc) containing constitutively active promoter as internal control. Kynurenine (an endogenous AhR agonist) was used to stimulate cells to test antagonistic properties of the compounds. The half-maximal inhibitory concentration (IC50) or half-maximal effective concentration (EC50) value was calculated using nonlinear regression (four parameters) with Prism8.0 software (GraphPad).
In Vitro Assay 1: Antagonism in Human Cell Line
HepG2 (human hepatoma cell line) cell line with a XRE-luciferase reporter either transiently or stably (Invivogen) were plated in complete medium and incubated at 37° C. in a CO2 incubator. After 24 hours, cells were treated with kynurenine (50* or 200 μM) alone (negative control) or with test compounds for 6 hours. Luciferase activity was measured with a commercial kit such as the Promega Luciferase kit or other reagents for measuring luciferase activity. Relative luciferase activity (Firefly/Nano-Luc) was used to calculate IC50 values. The relative luciferase activity was further normalized with kynurenine alone group as the maximum control and the vehicle group as the minimum control. (IC50 values are grouped as A, B, C and D, whereby A: IC50<0.01 μM; B: 0.01<IC50<0.1 μM; C: 0.1<IC50<1.0 μM; D: IC50>1.0 μM)

IC50 [µM] | Structure (SMILES)
> 1 | CC(=O)OCC(C)n1cnc2c(-c3ccc(Cl)cc3)nc(Cl)cc2c1=O (stereo not drawn) [Example 7, 2-(6-chloro-8-(4-chlorophenyl)-4-oxopyrido[3,4-d]pyrimidin-3(4H)-yl)propyl acetate]
> 1 | CCC(CO)n1cnc2c(-c3cccnc3)nc(-c3ccc(C(F)(F)F)cc3)cc2c1=O (stereo not drawn) [Example 53, 3-(1-hydroxybutan-2-yl)-8-(pyridin-3-yl)-6-(4-(trifluoromethyl)phenyl)pyrido[3,4-d]pyrimidin-4(3H)-one]
0.1 to 1 | Cn1cc(-c2cc3c(=O)n([C@H]4CC[C@H](O)CC4)cnc3c(-c3cnn(C)c3)n2)cn1 [Example 9, 3-((1r,4r)-4-hydroxycyclohexyl)-6,8-bis(1-methyl-1H-pyrazol-4-yl)pyrido[3,4-d]pyrimidin-4(3H)-one]
< 0.01 | CC(O)Cn1cnc2c(-c3cnn(C)c3)nc(-c3ccc(C(F)(F)F)cc3)cc2c1=O (stereo not drawn) [Example 12, 3-(2-hydroxypropyl)-8-(1-methyl-1H-pyrazol-4-yl)-6-(4-(trifluoromethyl)phenyl)pyrido[3,4-d]pyrimidin-4(3H)-one]

Same assay, conditions: HepG2 XRE-luciferase, cells treated with kynurenine 200 μM (no *), 6 hours; read-out: Assay 1: AhR-Luc Human Antagonism (IC50)

IC50 [µM] | Structure (SMILES)
< 0.01 | O=c1c2cc(-c3ccc(Cl)cc3)nc(-c3cccnc3)c2ncn1C1CCCC(O)C1 (stereo not drawn) [Example 63, 6-(4-chlorophenyl)-3-(3-hydroxycyclohexyl)-8-(pyridin-3-yl)pyrido[3,4-d]pyrimidin-4(3H)-one]
0.1 to 1 | CC(C(=O)O)n1cnc2c(-c3cccnc3)nc(-c3ccc(Cl)cc3)cc2c1=O (stereo not drawn) [Example 83, 2-(6-(4-chlorophenyl)-4-oxo-8-(pyridin-3-yl)pyrido[3,4-d]pyrimidin-3(4H)-yl)propanoic acid, 2,2,2-trifluoroacetic acid salt]
< 0.01 | O=c1c2cc(-c3ccc(Cl)cc3)nc(-c3cccnc3)c2ncn1CC(O)C(F)(F)F (stereo not drawn) [Example 24, 6-(4-chlorophenyl)-8-(pyridin-3-yl)-3-(3,3,3-trifluoro-2-hydroxypropyl)pyrido[3,4-d]pyrimidin-4(3H)-one]
< 0.01 | O=c1c2cc(-c3ccc(N4CCOCC4)cc3)nc(-c3cccnc3)c2ncn1C(CO)CO [Example 80, 3-(1,3-dihydroxypropan-2-yl)-6-(4-morpholinophenyl)-8-(pyridin-3-yl)pyrido[3,4-d]pyrimidin-4(3H)-one]
< 0.01 | O=c1c2cc(-c3ccc(N4CCOCC4)cc3)nc(-c3cccnc3)c2ncn1C1CCS(=O)(=O)CC1 [Example 78, 3-(1,1-dioxidotetrahydro-2H-thiopyran-4-yl)-6-(4-morpholinophenyl)-8-(pyridin-3-yl)pyrido[3,4-d]pyrimidin-4(3H)-one]
< 0.01 | Cn1cc(-c2nc(-c3ccc(C(F)(F)F)cc3)cc3c(=O)n([C@@H]4CCCC[C@@H]4O)cnc23)cn1 [Example 18, 3-((1R,2S)-2-hydroxycyclohexyl)-8-(1-methyl-1H-pyrazol-4-yl)-6-(4-(trifluoromethyl)phenyl)pyrido[3,4-d]pyrimidin-4(3H)-one]
< 0.01 | O=c1c2cc(-c3ccc(C(F)(F)F)cc3)nc(-c3cccnc3)c2ncn1[C@@H]1CC[C@H](O)C1 [Example 29, 3-((1R,3S)-3-hydroxycyclopentyl)-8-(pyridin-3-yl)-6-(4-(trifluoromethyl)phenyl)pyrido[3,4-d]pyrimidin-4(3H)-one]
< 0.01 | O=c1c2cc(-c3ccc(C(F)(F)F)cc3)nc(-c3cccnc3)c2ncn1C(CO)CO [Example 69, 3-(1,3-dihydroxypropan-2-yl)-8-(pyridin-3-yl)-6-(4-(trifluoromethyl)phenyl)pyrido[3,4-d]pyrimidin-4(3H)-one]
> 1 | O=c1c2cc(-c3ccc(C(F)(F)F)cc3)nc(-c3cccnc3)c2ncn1CC(O)C(F)(F)F (stereo not drawn) [Example 25, 8-(pyridin-3-yl)-3-(3,3,3-trifluoro-2-hydroxypropyl)-6-(4-(trifluoromethyl)phenyl)pyrido[3,4-d]pyrimidin-4(3H)-one]
0.01 to 0.1 | Cn1cc(-c2nc(-c3ccc(Cl)cc3)cc3c(=O)n(C4CCCC(O)C4)cnc23)cn1 (stereo not drawn) [Example 64, 6-(4-chlorophenyl)-3-(3-hydroxycyclohexyl)-8-(1-methyl-1H-pyrazol-4-yl)pyrido[3,4-d]pyrimidin-4(3H)-one]
< 0.01 | O=c1c2cc(-c3ccc(Cl)cc3)nc(-c3cccnc3)c2ncn1[C@H]1CC[C@@H](O)C1 [Example 32, 6-(4-chlorophenyl)-3-((1S,3R)-3-hydroxycyclopentyl)-8-(pyridin-3-yl)pyrido[3,4-d]pyrimidin-4(3H)-one]
0.01 to 0.1 | CC(=O)NCC(C)n1cnc2c(-c3cccnc3)nc(-c3ccc(C(F)(F)F)cc3)cc2c1=O (stereo not drawn) [Example 86, N-(2-(4-oxo-8-(pyridin-3-yl)-6-(4-(trifluoromethyl)phenyl)pyrido[3,4-d]pyrimidin-3(4H)-yl)propyl)acetamide]
< 0.01 | O=c1c2cc(-c3ccc(Cl)cc3)nc(-c3cccnc3)c2ncn1C(CO)CO [Example 70, 6-(4-chlorophenyl)-3-(1,3-dihydroxypropan-2-yl)-8-(pyridin-3-yl)pyrido[3,4-d]pyrimidin-4(3H)-one]
< 0.01 | O=c1c2cc(-c3ccc(Cl)cc3)nc(-c3cccnc3)c2ncn1[C@@H]1CCCC[C@@H]1O [Example 19]
0.01 to 0.1 | Cn1cc(-c2nc(-c3ccc(Cl)cc3)cc3c(=O)n([C@@H]4CC[C@H](O)C4)cnc23)cn1 [Example 30, 6-(4-chlorophenyl)-3-((1R,3S)-3-hydroxycyclopentyl)-8-(1-methyl-1H-pyrazol-4-yl)pyrido[3,4-d]pyrimidin-4(3H)-one]
< 0.01 | O=c1c2cc(-c3ccc(C(F)(F)F)cc3)nc(-c3cccnc3)c2ncn1-c1cccc(O)c1 [Example 62, 3-(3-hydroxyphenyl)-8-(pyridin-3-yl)-6-(4-(trifluoromethyl)phenyl)pyrido[3,4-d]pyrimidin-4(3H)-one]
0.01 to 0.1 | O=c1c2cc(-c3cnc(C(F)(F)F)nc3)nc(-c3cccnc3)c2ncn1[C@@H]1CC[C@H](O)C1 [Example 72, 3-((1R,3S)-3-hydroxycyclopentyl)-8-(pyridin-3-yl)-6-(2-(trifluoromethyl)pyrimidin-5-yl)pyrido[3,4-d]pyrimidin-4(3H)-one, TFA salt]
< 0.01 | CC(CN)n1cnc2c(-c3cccnc3)nc(-c3ccc(Cl)cc3)cc2c1=O (stereo not drawn) [Example 87, 3-(1-aminopropan-2-yl)-6-(4-chlorophenyl)-8-(pyridin-3-yl)pyrido[3,4-d]pyrimidin-4(3H)-one]
< 0.01 | Cn1cc(-c2nc(-c3ccc(C(F)(F)F)cc3)cc3c(=O)n([C@@H]4CC[C@H](O)C4)cnc23)cn1 [Example 31, 3-((1R,3S)-3-hydroxycyclopentyl)-8-(1-methyl-1H-pyrazol-4-yl)-6-(4-(trifluoromethyl)phenyl)pyrido[3,4-d]pyrimidin-4(3H)-one]
> 1 | O=c1c2cc(-c3ccc(C(F)(F)F)cc3)nc(-c3cccnc3)c2ncn1[C@H]1CCCC[C@H]1O [Example 15, 3-((1S,2R)-2-hydroxycyclohexyl)-8-(pyridin-3-yl)-6-(4-(trifluoromethyl)phenyl)pyrido[3,4-d]pyrimidin-4(3H)-one]
